Active and inactive are the calls of the source. The rule behind the calls is not given here.

The target of data set [1] is T1, Progesterone receptor (Homo sapiens) (UniProt P06401).
T1 sequence (whole entry): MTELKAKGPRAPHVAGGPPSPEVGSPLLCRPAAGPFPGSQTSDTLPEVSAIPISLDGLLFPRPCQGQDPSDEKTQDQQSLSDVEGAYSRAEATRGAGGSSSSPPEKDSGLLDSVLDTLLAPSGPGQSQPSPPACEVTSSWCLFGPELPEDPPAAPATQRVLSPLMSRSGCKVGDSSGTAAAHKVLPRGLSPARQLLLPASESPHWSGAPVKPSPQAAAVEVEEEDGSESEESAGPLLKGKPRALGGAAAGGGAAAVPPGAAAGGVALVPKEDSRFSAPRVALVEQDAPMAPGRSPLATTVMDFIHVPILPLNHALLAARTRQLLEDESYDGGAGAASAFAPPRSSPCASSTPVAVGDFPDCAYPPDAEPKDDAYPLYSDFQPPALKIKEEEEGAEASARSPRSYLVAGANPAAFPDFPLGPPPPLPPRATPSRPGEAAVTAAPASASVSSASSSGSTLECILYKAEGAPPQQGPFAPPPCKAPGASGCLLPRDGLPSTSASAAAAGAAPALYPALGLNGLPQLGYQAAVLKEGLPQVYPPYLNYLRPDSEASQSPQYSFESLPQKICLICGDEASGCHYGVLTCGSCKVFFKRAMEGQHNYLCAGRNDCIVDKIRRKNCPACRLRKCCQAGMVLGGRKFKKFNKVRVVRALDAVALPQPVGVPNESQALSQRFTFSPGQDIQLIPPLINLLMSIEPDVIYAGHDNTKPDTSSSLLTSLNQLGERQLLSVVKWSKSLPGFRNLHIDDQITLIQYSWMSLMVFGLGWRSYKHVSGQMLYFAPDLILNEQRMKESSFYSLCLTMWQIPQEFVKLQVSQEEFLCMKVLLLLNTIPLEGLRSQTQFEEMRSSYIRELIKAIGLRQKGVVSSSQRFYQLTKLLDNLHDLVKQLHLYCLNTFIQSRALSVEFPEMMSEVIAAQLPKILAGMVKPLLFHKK
Put plainly: Agonist activity at gal-PR expressed in african green monkey CV1 cells co-expressing MH100 by luciferase reporter gene assay. It is filed as functional, cell-based. Particulars: CV-1.

Data set [2] concerns the target T2, Androgen receptor (Homo sapiens) (UniProt P10275).
T2 sequence (whole entry): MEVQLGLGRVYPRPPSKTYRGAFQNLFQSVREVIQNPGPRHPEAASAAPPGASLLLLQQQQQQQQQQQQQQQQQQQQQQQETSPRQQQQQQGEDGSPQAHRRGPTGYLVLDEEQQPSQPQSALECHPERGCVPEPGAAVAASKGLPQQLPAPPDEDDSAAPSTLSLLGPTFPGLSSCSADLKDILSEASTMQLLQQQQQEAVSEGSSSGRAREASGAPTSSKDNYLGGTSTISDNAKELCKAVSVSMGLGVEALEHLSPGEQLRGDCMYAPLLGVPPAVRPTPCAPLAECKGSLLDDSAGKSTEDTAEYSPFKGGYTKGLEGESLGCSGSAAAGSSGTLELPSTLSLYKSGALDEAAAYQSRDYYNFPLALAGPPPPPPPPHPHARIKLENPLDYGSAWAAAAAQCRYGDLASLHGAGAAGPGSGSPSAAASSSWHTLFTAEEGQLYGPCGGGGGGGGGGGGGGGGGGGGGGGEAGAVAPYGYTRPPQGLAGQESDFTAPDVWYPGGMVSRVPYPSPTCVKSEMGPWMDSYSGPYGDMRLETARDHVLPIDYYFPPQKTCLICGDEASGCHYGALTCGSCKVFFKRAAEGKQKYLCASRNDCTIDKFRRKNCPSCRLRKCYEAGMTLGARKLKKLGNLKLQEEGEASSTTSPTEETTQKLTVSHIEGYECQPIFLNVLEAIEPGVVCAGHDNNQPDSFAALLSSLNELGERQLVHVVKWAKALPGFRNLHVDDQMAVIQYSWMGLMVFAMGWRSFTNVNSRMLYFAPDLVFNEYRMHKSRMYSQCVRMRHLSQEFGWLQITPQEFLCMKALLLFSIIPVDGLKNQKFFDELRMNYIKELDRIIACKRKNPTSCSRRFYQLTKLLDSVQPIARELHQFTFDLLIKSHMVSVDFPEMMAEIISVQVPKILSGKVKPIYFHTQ
Put plainly: Antagonist activity at gal-AR expressed in african green monkey CV1 cells co-expressing MH100 with GRIP1 co-factor at 10 uM by luciferase reporter gene assay. It is filed as functional, cell-based. To be noted: CV-1.

For data set [3], the target named is T3, Peroxisome proliferator-activated receptor alpha (Homo sapiens) (UniProt Q07869).
T3 sequence (whole entry): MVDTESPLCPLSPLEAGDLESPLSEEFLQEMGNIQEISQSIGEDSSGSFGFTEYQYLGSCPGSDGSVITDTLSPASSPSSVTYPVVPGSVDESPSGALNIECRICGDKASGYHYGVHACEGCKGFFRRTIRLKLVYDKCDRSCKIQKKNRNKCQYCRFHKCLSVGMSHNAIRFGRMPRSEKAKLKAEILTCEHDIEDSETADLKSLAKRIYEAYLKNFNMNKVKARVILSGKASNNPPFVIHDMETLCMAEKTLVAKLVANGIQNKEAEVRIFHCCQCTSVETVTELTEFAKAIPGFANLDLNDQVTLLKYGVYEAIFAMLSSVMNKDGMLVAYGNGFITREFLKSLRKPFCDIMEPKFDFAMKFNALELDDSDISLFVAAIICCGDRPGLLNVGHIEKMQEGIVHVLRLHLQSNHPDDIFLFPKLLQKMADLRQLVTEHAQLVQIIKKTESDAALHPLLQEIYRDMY
Put plainly: Agonist activity at PPARalpha expressed in african green monkey CV1 cells co-expressing MH100 by luciferase reporter gene assay. It is filed as functional, cell-based. Particulars: CV-1.

The target in data set [4] is Oxysterols receptor LXR-alpha (Homo sapiens) (UniProt Q13133). The data set is described as follows: Agonist activity at LXRalpha expressed in african green monkey CV1 cells co-expressing LXRE by luciferase reporter gene assay. The data set is classed as functional, cell-based. Particulars: CV-1.
The target of data set [5] is Nuclear receptor subfamily 1 group I member 2 (Homo sapiens, UniProt O75469). The data set is described as follows: Agonist activity at SXR expressed in african green monkey CV1 cells co-expressing MH100 by luciferase reporter gene assay. Particulars: cv-1. The data set is classed as functional, cell-based.
Data set [6] in a line: Clearance in CD rat at 3 mg/kg, iv. It is filed as ADME, organism-based. Details: dose 3 mg/kg, route intravenous. Particulars: in vivo.

Sequence of Oxysterols receptor LXR-alpha (Homo sapiens) (Q13133 whole entry): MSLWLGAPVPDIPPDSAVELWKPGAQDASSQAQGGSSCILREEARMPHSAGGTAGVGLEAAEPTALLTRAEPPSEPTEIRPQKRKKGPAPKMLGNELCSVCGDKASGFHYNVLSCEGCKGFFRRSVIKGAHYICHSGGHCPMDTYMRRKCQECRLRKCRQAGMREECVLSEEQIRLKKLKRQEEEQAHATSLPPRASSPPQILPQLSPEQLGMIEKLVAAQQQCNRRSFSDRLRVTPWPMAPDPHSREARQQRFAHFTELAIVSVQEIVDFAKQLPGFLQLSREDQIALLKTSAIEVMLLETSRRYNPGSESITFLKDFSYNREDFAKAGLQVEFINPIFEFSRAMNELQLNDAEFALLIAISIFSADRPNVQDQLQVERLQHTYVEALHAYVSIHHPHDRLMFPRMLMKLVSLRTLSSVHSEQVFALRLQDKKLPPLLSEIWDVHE
Sequence of Nuclear receptor subfamily 1 group I member 2 (O75469 whole entry): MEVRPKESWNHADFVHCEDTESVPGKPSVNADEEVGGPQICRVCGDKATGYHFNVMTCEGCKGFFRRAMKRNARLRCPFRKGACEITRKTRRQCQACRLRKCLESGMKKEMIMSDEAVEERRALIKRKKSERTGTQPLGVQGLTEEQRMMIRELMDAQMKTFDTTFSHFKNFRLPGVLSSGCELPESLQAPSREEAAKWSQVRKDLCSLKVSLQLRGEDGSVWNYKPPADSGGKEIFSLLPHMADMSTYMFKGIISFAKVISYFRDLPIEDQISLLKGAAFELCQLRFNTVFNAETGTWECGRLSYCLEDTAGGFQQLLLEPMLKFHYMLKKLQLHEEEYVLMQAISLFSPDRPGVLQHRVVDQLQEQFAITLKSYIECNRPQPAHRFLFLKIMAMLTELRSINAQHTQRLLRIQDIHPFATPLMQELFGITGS

Turning to `CC(C)OC(=O)C1=CN(C(=O)c2ccc(F)c(F)c2)CC(C)(C)c2c1[nH]c1ccccc21` [TUROFEXORATE ISOPROPYL], the outcome in data set [1], in data set [3] and in data set [4] was inactive. In data set [2], the inhibition came to 26%. The Activity result in data set [5] is given as “Not Active”. In data set [6], this compound showed a clearance of 5.68 mL/min/kg.

(Values after ChEMBL document CHEMBL1140941 (J Med Chem, 2009).)
